Drawing on PubChem BioAssay AID2253 (Southern Research Specialized Biocontainment Screening …, 2010), this text covers EC50 for 100 molecules.

Where “and” joins values, the source holds several entries; their conditions need not be identical. Identical values can stand only once.

By EC50 is commonly meant the concentration that produces a half-maximal response.

In the assay the test system is THP-1 viability, CellTiter-Glo luminescence, 72 h. The assay can be described thus: THP-1 cell cytotoxicity, dose response, cytotoxicity control for Salmonella PhoP regulon inhibitors, S. typhimurium screen hits (AID 2253).
`O=C(/C=C/c1ccco1)Oc1cc(Br)cc(/C=N/NC(=O)c2ccccc2O)c1`: the concentration for a half-maximal effect (EC50) was 0.35 µM.
On to `COc1ccc2ccccc2c1/C=N/NC(=O)c1sc(N)c(C#N)c1C`, for which the EC50 was 30.1 µM.
For `Cc1cc(C(C)(C)CC(C)(C)C)ccc1OCCOCC[N+](C)(C)Cc1ccccc1`, the EC50 was 1.61 µM.
Turning to `NC(N)=N/N=C/c1ccc(OCc2ccc(Cl)cc2)cc1`, the concentration for a half-maximal effect (EC50) is 2.91 µM.
Consider `CCN1/C(=C/C=C/C=C/c2sc3ccccc3[n+]2CC)Sc2ccccc21`, for which the EC50 is 4.62 µM.
For `O=[N+]([O-])c1ccc(O)c(/C=N/Nc2ccccn2)c1`, the EC50 was 0.42 µM.
`COc1ccc(NC(C)C(=O)Nc2ccc(C(C)(C)C)cc2)cc1Cl` (stereo not given): the EC50 is 40.7 µM.
Regarding `O=C(/C=C/c1ccccc1Cl)c1ccccc(=O)c1O`, the half-maximal effective concentration (EC50) is 12.6 µM.
For `CCCCCCNC(=O)c1cn(CC)c2cc(N3CCN(C)CC3)c(F)cc2c1=O`, the concentration giving a half-maximal response (EC50) is 16.1 µM.
For the molecule `Cc1ccc(C(=O)NNc2c3ccccc3nc3ccccc23)cc1`, the concentration for a half-maximal effect (EC50) is 27.5 µM.
For `Cc1ccc(-c2csc(N=C(N)N)n2)c(C)c1`, the EC50 was 23.5 µM.
`CC(CO)(CO)NCc1ccc(-c2ccccc2)cc1`: the EC50 is 15 µM.
Regarding `CN(C)CCCNc1cc(C(C)(C)C)nc2c(-c3ccccc3)cnn12`, the half-maximal effective concentration (EC50) was 9.26 µM.
With `COc1ccccc1Nc1nc(NCc2ccco2)c2ccccc2n1`, the EC50 is 16.2 µM.
In the case of `CCOc1ccc(CNc2ccc(N3CCCC3)cc2)cc1`, the EC50 was 11.8 µM.
For the molecule `O=C(CSc1nc2ccccc2s1)N/N=C/c1cc([N+](=O)[O-])ccc1O`, the 50% effective concentration (EC50) is 26.4 µM.
As for `O=c1ccc2ccc(Oc3ccc([N+](=O)[O-])cc3[N+](=O)[O-])cc2o1`, the EC50 was 7.86 µM.
For the molecule `COc1ccc(OC)c(/C=N/NC(=O)c2cc3c(OC)c(OC)ccc3[nH]2)c1`, the half-maximal effective concentration (EC50) is 43.8 µM.
Under `Cc1ccccc1Cn1c(=N)n(CC(=O)c2ccco2)c2ccccc21` stands 22.8 µM; under `COc1ccc(C(=O)On2c(-c3ccc(Br)cc3)nc3ccccc3c2=O)cc1`, 12.8 µM; under `CCCCCCCCCCCCCCCC[N+](C)(C)CCN(Cc1ccc(OC)cc1)c1ncccn1`, 0.51 µM.
Regarding `COc1ccccc1N1CCN(c2ccc(-c3ccccc3)nn2)CC1`, the EC50 is 2.61 µM.
In the case of `O=C(NNC(=O)c1cnccn1)c1ccc(Cl)cc1`, the EC50 is 24.5 µM.
Under `CCCCCOc1ccc(CSC(=N)N)cc1[N+](=O)[O-]` stands 7.91 µM; under `O=C(NC(c1ccc(Cl)cc1)c1c(O)ccc2ccccc12)c1ccccc1` (stereo not given), 8.91 µM; under `c1ccc2c(c1)ncn2CCCCOc1ccc2c(c1)CCC2`, 15 µM.
In the case of `C#CCn1cc(/C=N/Nc2nc3ccccc3[nH]2)c2ccccc21` it was 6.14 µM; in that of `C1CCC(C(CC2CCCCN2)C2CCCCC2)CC1` (stereo not given), 5.45 µM.
For the molecule `O=[N+]([O-])c1cc(O)c2ncccc2c1`, the concentration giving a half-maximal response (EC50) was 6.48 µM.
Under `CCCOc1ccc(C(=O)C(CCC(CNCC)C(=O)c2ccc(OCCC)cc2)CNCC)cc1` (stereo not given) stands 1.58 µM; under `O=C(C[n+]1cc(-c2ccc(Cl)cc2)n2c1CCC2)Nc1nc(-c2ccccc2)cs1`, 43.3 µM; under `C/C(=C\C(=O)c1cccnc1)Nc1ccc(O)cc1`, 47.6 µM.
For `CN(CCO)c1cc(Sc2nc3ccccc3s2)c2nonc2c1[N+](=O)[O-]`, the concentration for a half-maximal effect (EC50) was 15.8 µM.
Consider `c1ccc(Cc2nnc(-c3ccccc3)o2)cc1`, for which the half-maximal effective concentration (EC50) was 30.7 µM.
Under `Clc1ccc(-c2csc3ncnc(N4CCc5ccccc5C4)c23)cc1` stands 44 µM.
For `CCCCCCCCCCOC(=O)Cn1c(COc2ccc(OC)cc2)[n+](C)c2ccccc21`, the EC50 is 3.17 µM and 2.22 µM.
For the molecule `CCOc1cccc(CNc2ccc(O)cc2)c1OCc1ccc(Cl)cc1Cl`, the EC50 was 26.9 µM.
`O=C1NC2=C(CCc3ccccc32)C(c2ccc(Br)cc2)N1` (stereo not given): the concentration for a half-maximal effect (EC50) was 19.3 µM.
Turning to `COC12C(COC(N)=O)C3=C(C(=O)C(C)=C(N)C3=O)N1CC1C2N1C` (stereo not given), the concentration giving a half-maximal response (EC50) was 9.05 µM.
In the case of `C#CC(=O)N(c1cc(OC)ccc1OC)C(C(=O)NC1CCCC1)c1cccs1` (stereo not given) it was 1.42 µM; in that of `O=C(N/N=C/c1cc(O)ccc1Br)c1cccnc1`, 2.25 µM; in that of `O=C(N/N=C/c1c[nH]c2ccccc12)c1cc(-c2cccc3ccccc23)n[nH]1`, 13.8 µM.
In the case of `O=C1c2ccccc2NC(c2ccc(-c3ccc(Br)cc3)o2)N1O` (stereo not given) it was 7.16 µM; in that of `Oc1c(I)cc(Cl)c2cccnc12`, 14.4 µM.
On to `Cc1ccc(-n2c(C)cc(C3=NNC(=NC4CC4)SC3)c2C)cc1C`, for which the EC50 is 21.4 µM.
`O=C(c1ccccc1)C(CN1CCCC1)c1ccccc1` (stereo not given): the concentration for a half-maximal effect (EC50) was 5.56 µM.
Under `Cc1[nH]c2ccccc2c1C(O)CN1CCN(c2cccc(C(F)(F)F)c2)CC1` (stereo not given) stands 9.39 µM; under `CCOc1cc(/C=C2/NC(=O)N(CC(=O)Nc3cccc(C)c3)C2=O)ccc1OC`, 30.8 µM; under `Oc1ccc(Br)cc1-c1nc2cnccn2c1NC1CCCCC1`, 46.4 µM.
In the case of `Cc1cc(C)n(-c2nc(NCCN(C)C)c3c4c(sc3n2)CCCC4)n1` it was 4.63 µM; in that of `CCN(CC)c1ccc(S(=O)(=O)Nc2cc(Cl)ccc2Cl)cc1NC(=S)NC(=O)C1CCCC1`, 40 µM; in that of `CCc1ccc(S(=O)(=O)/N=C2/C=C(Sc3ncn[nH]3)C(=O)c3ccccc32)cc1`, 4.28 µM.
In the case of `O=C(Nc1cccc(Cl)c1)Nc1ccc2c(c1)OCO2`, the EC50 was 36.8 µM.
For the molecule `CN(C)CCCN(C(=O)CCc1ccccc1)c1nc2ccc(Cl)cc2s1`, the concentration for a half-maximal effect (EC50) is 25.9 µM.
Under `Cc1ccc(SC(c2ccc(C)cc2)C(Cn2cncn2)C(=O)c2ccccc2)cc1` (stereo not given) stands 49.8 µM.
In the case of `Cc1ccc(C)c(/C=C/C(=O)c2ccccc(=O)c2O)c1`, the concentration giving a half-maximal response (EC50) is 9.58 µM.
Turning to `c1ccc2c(CCNCc3ccc4c(c3)OCO4)c[nH]c2c1`, the half-maximal effective concentration (EC50) is 24.2 µM.
With `CCc1ccc(Nc2nc(N)nc(CSc3nc4ccccc4s3)n2)cc1`, the EC50 was 33.8 µM.
For the molecule `Cc1cc2nc3ccc(=[N+](C)C)cc-3sc2cc1N`, the EC50 is 1 µM.
As for `Clc1ccc(-c2c[n+](Cc3ccc(Cl)cc3Cl)c3n2CCCCC3)cc1`, the EC50 is 3.61 µM.
For the molecule `C#CCOCCOCCOCCNc1nc(N2CCN(C(=O)CCCCCCCCCCNC(=O)[C@H](CCCN=C(N)N)n3cc(C[C@@H](C)CC)nn3)CC2)nc(N2CCN(C(=O)CCCCCCCCCCNC(=O)[C@@H]([C@H](C)CC)n3cc(CCCCCN)nn3)CC2)n1`, the concentration giving a half-maximal response (EC50) was 5.33 µM.
With `CN1/C(=C\C=C\C2=[N+](C)c3ccc4ccccc4c3C2(C)C)C(C)(C)c2ccccc21`, the EC50 is 0.15 µM.
`CCOc1ccccc1NS(=O)(=O)c1ccc(Br)s1`: the concentration giving a half-maximal response (EC50) was 40.5 µM.
For the molecule `OC(COc1ccc2ccccc2c1Br)Cn1ccnc1` (stereo not given), the 50% effective concentration (EC50) was 43.9 µM.
In the case of `O=C(Nc1ccccc1)Nc1ncc([N+](=O)[O-])s1` it was 15.8 µM; in that of `OC(c1cc(C(F)(F)F)nc2c(Cl)cc(Cl)cc12)C1CCCCN1` (stereo not given), 12.6 µM; in that of `Cc1ccc(C(C)C)c(OCC(=O)N2CCN(Cc3nc4cc([N+](=O)[O-])ccc4n3C)CC2)c1`, 25.9 µM.
On to `CCCCOc1ccc(Cc2cnc(N)nc2N)cc1`, for which the EC50 was 41.5 µM.
Consider `COc1ccc(-c2c/c(=N\c3nc(-c4ccccc4)c(C)s3)c3ccccc3o2)cc1O`, for which the EC50 is 2.36 µM.
Under `Cc1cc2cc(CCNC(=O)c3cccs3)c(=O)[nH]c2cc1C` stands 17.2 µM; under `Cc1ccccc1OCc1n(CC(=O)OC2CC(C)CCC2C(C)C)c2ccccc2[n+]1C` (stereo not given), 2 µM; under `c1ccc(Nc2nc3ccccc3[nH]2)nc1`, 30.6 µM.
In the case of `Cc1ccccc1Nc1cc(C)c2c(O)cccc2n1` it was 7.56 µM; in that of `CC(=O)c1ccc(NC(=O)Nc2cccc(Cl)c2)cc1`, 20.1 µM; in that of `OC(c1cc(-c2ccc(C(F)(F)F)cc2)nc(C(F)(F)F)c1)C1CCCCN1` (stereo not given), 6.15 µM.
As for `c1ccc(CNc2c3c(nc4ccccc24)CCC3)cc1`, the EC50 was 11.3 µM.
`CCOc1ccc(CSC(=N)N)cc1[N+](=O)[O-]`: the EC50 was 20.4 µM.
For `COc1ccc(-c2csc(NCc3ccco3)n2)cc1`, the half-maximal effective concentration (EC50) is 38.5 µM.
Consider `CCN1CCN(C(c2cccnc2)c2cc(Cl)c3cccnc3c2O)CC1` (stereo not given), for which the EC50 is 8.34 µM.
Under `CCCCCCCCCCCCCCCC[n+]1ccc(/C=N/O)cc1` stands 0.37 µM; under `O=[N+]([O-])c1ccc(Sc2nc3ccccc3o2)c([N+](=O)[O-])c1`, 1.94 µM; under `Cc1cc(O)ccc1Nc1nc2ccccc2nc1Nc1ccc(O)cc1C`, 24.4 µM.
`COc1cc(NC(=O)Nc2cccc(Cl)c2)c(OC)cc1NC(=O)CN1CCCCC1`: the 50% effective concentration (EC50) is 15.5 µM.
For the molecule `c1ccc(-c2cccc(-c3ccccn3)n2)nc1`, the EC50 was 0.45 µM.
Take `O=c1c2c(-c3ccccc3)csc2nc2c3ccccc3c(NCCN3CCOCC3)nn12`: the half-maximal effective concentration (EC50) was 3.11 µM.
As to `Cc1nnc(N/N=C/c2ccccn2)[nH]c1=O`, the EC50 was 0.81 µM.
Turning to `CCCCCCCCCCCCCCCCn1cc[n+](CC(C)=O)c1`, the 50% effective concentration (EC50) is 0.8 µM.
In the case of `Clc1ccc(CN2CCC(c3nc4ccc(Cl)cc4[nH]3)CC2)cc1` it was 29.4 µM.
Turning to `CCCCCCCCCCCCCCCC[N+](C)(C)CC`, the EC50 is 0.7 µM.
Take `Cc1ccnc(NC(c2cccnc2)c2ccc3cccnc3c2O)c1` (stereo not given): the half-maximal effective concentration (EC50) is 12 µM.
In the case of `O=C(Cc1cccs1)Nc1cccc(-c2nc3cc4ccccc4cc3[nH]2)c1` it was 12.5 µM; in that of `NC(=NCCCCCCN=C(N)/N=C(\N)Nc1ccc(Cl)cc1)/N=C(\N)Nc1ccc(Cl)cc1`, 3.09 µM and 3.04 µM and 2.9 µM.
As to `CCCCCc1ccc(OCCOCCn2c[n+](C)c3ccccc32)c(CCCCC)c1`, the 50% effective concentration (EC50) was 1.35 µM.
As to `O=[N+]([O-])c1cc(Cl)c(O)c2ncccc12`, the 50% effective concentration (EC50) is 15 µM.
As to `COC(=O)c1c(NC(=O)c2ccc([N+](=O)[O-])o2)sc2c1CCN(C(C)C)C2`, the 50% effective concentration (EC50) was 1.2 µM.
Turning to `COc1ccc(CNC[C@@H](CCCCN(C)Cc2ccc(OC)cc2)N2C[C@H](c3ccccc3)N(CCc3ccc(Cl)c(Cl)c3)C(=O)C2=O)cc1`, the EC50 was 3.93 µM.
With `Clc1ccc(OCCCNCc2ccccc2)c(Br)c1`, the EC50 is 11.5 µM.
Consider `CCCCCCOC(=O)Sc1nc2ccccc2o1`, for which the EC50 was 35 µM.
Under `S=C(Nc1cccc(Cl)c1)Nc1cccc2cnccc12` stands 19 µM; under `Oc1c(C(c2ccccn2)N2CCOCC2)ccc2cccnc12` (stereo not given), 13.8 µM.
